Experimental data taken from patent US20070027175A1, “Antineoplastic activities of ellipticine and its derivatives” (priority 2005, published 2007).

Columns and labels:
[1] = tested on: myeloma cell lines chronically exposed to Velcade; test: Myeloma cell lines with acquired Velcade tolerance; format: cell-based
U266 cells [2] = format: cell-based, human; conditions: for disruption of mitochondria (MitoTracker Red CMXRos): 6 hours, EPED3 2 mM, Velcade 0.5 mM
Description: FIGS. 15A-15C show fluorescent images of EPED3 endoplasmic distribution and induction of apoptosis, which was also detected by Western Blot. […] For analysis by fluorescence microscopy, nuclei were stained with DAPI (blue), mitochondria with MitoTracker Red CMXRos (red), and cytochrome c with FITC-conjugated secondary antibodies (green); EPED3 is excited by ultraviolet light (wavelength<500 nm) and was visualized as gold.
The appearance of large cytoplasmic vacuoles (arrows) and diminished mitochondria in cells treated with EPED3 indicate ongoing apoptosis. […] Cytochrome c disassociation with mitochondria also indicates initiation of the intrinsic apoptotic pathway. […] Protein extracts ([…]) were analyzed by Western blotting, using goat anti-human Caspase-3, -8, and -9 polyclonal antibodies. […] In contrast, both EPED3 and Velcade treatments initiated the intrinsic pathway, which releases cytochrome c to induce rapid cleavage of Caspase-9 into its activated form. The consequent Caspase-3 activation indicates activity of the intracellular proteolytic cascade. Abbreviations: C=Medium control, E=EPED3, V=Velcade.
Myeloma cells were co-cultured with human fetal bone mesenchymal cells in the TC inserts. The cells were treated with individual antimyeloma agents at desired concentrations. An aliquot containing 10^6 cells was transferred to 24-well plate and mixed with MitoTracker Red CMXRos (Invitrogen) at 50 nM final concentration. After a 15-minute incubation, cells were collected and washed with PBS and resuspended at 5×10^5 cells/ml for slide adhesion by the Cytospinning method. […]
Autofluorescence of EPED3 was used to visually examine its effects on myeloma cells. […] Cells that ingested EPED3 were, therefore, discernible by the characteristic golden light emitted under fluorescence microscopy. […]
To further investigate effects of EPED3 on mitochondrial integrity and cytochrome c, treated U266 cells were immunohistochemically analyzed.

U266 cells [3] = test: MTT dose response to anti-myeloma agents, U266; format: cell-based, human; conditions: 24 and 48 hours
Procedure: FIGS. 12A-12B show dose response of myeloma cells to common anti-myeloma agents used in clinics. U266 was one of 4 myeloma cell lines exposed to a panel of anti-myeloma agents in 2-fold titration ([…]). MTT assays were performed to assess cell proliferation inhibition for 24 hours (FIG. 12A) and 48 hours (FIG. 12B). […] Error bars indicate standard deviation.
Myeloma cells were suspended in fresh medium at […] and seeded into 96-well plates in 50-μl aliquots (10,000 cells/well). After treating cells in each well with the appropriate compound (50-μl aliquots of 2× stock solution) and medium control, the methylthiazolyldiphenyl-tetrazolium bromide (MTT) assay kit (Promega, Madison, Wis.) was used to determine cell proliferation, according to manufacturer's instructions. Briefly, dye solution was added to each well (15 μl/well) and incubated for 4 hours at 37° C. and 5% CO2; 100 μl of the solubilization solution/stop mix was then added. The plates were read at 570 nm in a plate reader, and the A570 nm values were corrected by A650 nm. All experiments were conducted in triplicate.
In vitro comparison of EPED3 to ellipticine and four anti-myeloma agents commonly used in clinical treatment regimens was carried out with four myeloma cell lines (JJN3, L363, OCI-MY5, and U266). EPED3, ellipticine, Dox, dexamethasome, VP-16-213, and Velcade were applied in a two-fold dilution series ranging from 0.1 to 6.4 μM. Cell proliferation was assessed using MTT assays 24 and 48 hours after initiating treatments.

U266 cells [4] = test: Flow cytometry cell cycle arrest (DNA-Prep); format: cell-based, human; conditions: 12 hours; EPED3 2 μM, Velcade 0.5 μM
Procedure: FIGS. 14A-14L show flowcytometry analyses of cell viability and cell cycle arrest under EPED3 and Velcade treatments. U266 cells were co-cultured without contact with human fetal bone mesenchymal cells. Cells were untreated (Control; FIGS. 14A, 14D, 14G, 14J) or exposed to […] (FIGS. 14B, 14E, 14H, 14K) or […] (FIGS. 14C, 14F, 14I, 14L) for 12 hours and then harvested. Pan-caspase inhibitor Z-VAD-FMK ([…]) was also added to co-cultures (FIGS. 14D-14F and FIGS. 14J-14L) to block caspase-dependent apoptosis and then analyzed for cell cycling arrest. Percent cells in G0+G1 and G2+M phases were measured by the peaks of DNA helix and are gated with each graph (FIGS. 14A-14F). Percent cells with fragmented DNA are indicated as c % in each graph. Cells were also analyzed for apoptotic status (FIGS. 14G-14L) using Coulter Annexin-V FITC/7-AAD kit. Untreated cells (Control; FIGS. 14G and 14J) were maintained at high viability (90%). Early apoptotic cells were gated at G4, and necrotic cells were gated at G2; percent cells in each population are indicated with each graph. The arrows indicate percent viable cells ingested EPED3, whose fluorescent property was captured at channel FL4 (FIGS. 14H, 14K).
Cell cycle arrest was measured using DNA-Prep Coulter Reagents kit (Beckman Coulter, Inc., Miami, Fla.). Myeloma cells were harvested from co-culture inserts and washed in phosphate buffered saline (PBS); 5×10^5 cells were stained according to the manufacturer's instructions. Samples were analyzed using EPICS XL-MCL flowcytometer equipped with EXPO32 ADC software (Beckman Coulter, Inc.).
To investigate the effects of EPED3 on apoptosis and cell cycle arrest of myeloma cells, U266 cells were exposed to EPED3 (2 μM) or Velcade (0.5 μM) in co-culture without direct contact with fetal human bone mesenchymal cells. Twelve hours after treatment, cells were harvested for using flow cytometry to detect ongoing apoptosis and cell cycle arrest.
The cell cycle arrest analysis was simultaneously performed to examine DNA helix in U266 cells at 12 hours. […] Furthermore, 7.2% of the EPED3-treated population was in G2+M phase as opposed to 25.4% of the control and 18.9% of Velcade-treated populations in the G2+M phase (FIG. 14A-14C).

SMILES: CC(C)C[C@H](NC(=O)[C@H](Cc1ccccc1)NC(=O)c1cnccn1)B(O)O [Velcade, bortezomib, reference compound]
- tolerance level after chronic exposure ([1]; in vitro chronic exposure to Velcade, several myeloma cell lines): > 5 nM
- disruption of mitochondria (MitoTracker Red CMXRos) (U266 cells [2]): mitochondrial disruption was not seen
- concentration of efficient killing of U266 cells (U266 cells [3]; without co-culture, MTT): less than 0.1 μM
- population in G0+G1 phase (U266 cells [4]): 59.8%
- population in G2+M phase (U266 cells [4]): 18.9%

SMILES: Cc1c2ccncc2c(C)c2c1[nH]c1ccc(OCCN(C)C)cc12 [NSC 338258, ellipticine, 9-dimethyl amino-ethoxy-]
- cross-tolerance of Velcade-tolerant cells ([1]; data not shown): such Velcade-tolerance did not apply
- cell uptake and distribution (autofluorescence) (U266 cells [2]): instantly permeated the cells and distributed throughout the cytosol
- disruption of mitochondria (MitoTracker Red CMXRos) (U266 cells [2]): Disruption of mitochondria
- concentration with better efficacy on reduction of cell metabolic activity (U266 cells [3]; U266): ≥ 0.4 µM
- concentration at which cell proliferation stopped (U266 cells [3]; U266, MTT): 0.2 µM
- population in G0+G1 phase (U266 cells [4]): 67.5%
- population in G2+M phase (U266 cells [4]): 7.2%
